Bridge positions count the residues as written; N and C are the ends. Square brackets hold non-standard residues; d marks the D form. Peptide text beside a SMILES is read from it. R8 = C=CCCCCCC[C@@](C)(N)C(=O)O; S5 = C=CCCC[C@](C)(N)C(=O)O; Nle = CCCC[C@H](N)C(=O)O
Columns and labels:
[1] = tested on: HRE-bla ME-180 cells; assay: Reporter gene assay (HRE-bla ME-180 HIF reporter, GeneBLAzer); type: cell-based, human; details: for EC50: 24 hour normoxia
Summary of the method: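 A FRET β-lactamase readout of HIF transcription was used. After compound treatment in 0.3% DMSO/media under normoxic conditions, 20 μl of 6× LiveBLAzer-FRET B/G (CCF4-AM) substrate was added. Plates sat 3 hr at room temperature in the dark and were read at 409 Ex/460Em and 409Ex/530Em on a Synergy 2. Inhibition was compared against DMSO vehicle controls, with chetomin as positive control.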

[2] = tested on: HRE-bla ME-180 cells; assay: Cell proliferation assay (viability, MTT, 1% FBS); type: cell-based, human
Summary of the method: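 Viable cell number was measured with the CellTiter 96 (MTT) kit after compounds were applied for a 16 h normoxic (21% O2) pretreatment, followed by further normoxic or hypoxic (1% O2) culture. Cells: 2×10^4 ME-180 per well, Opti-MEM + 1% FBS, 0.5% DMSO vehicle.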

[3] = biological target: T1, flag-tagged HIF1α (AA 786-826) / His6-tagged p300 (AA 323-423) complex (Homo sapiens, UniProt Q09472); assay: HIF1α p300 displacement assay (TR FRET, +CHAPS); type: binding; details: read-out: IC50 (nM) (HIF1α_p300 Displacement + CHAPS)
T1 construct: His6-tagged p300 (AA 323-423); made in house; host or cells: E. coli (pETDuet vector)
Summary of the method: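 In this TR-FRET displacement format, peptides compete HIF1α C-terminal transactivation domain off p300-CH. They were preincubated 1 h at room temperature with 300 nM complex in HEPES pH 7.4/NaCl buffer with 7.5 mM CHAPS and 1 mM DTT. Anti-His-D2 (4 nM) and anti-Flag-K (0.5 μM) followed for 2 h, and a one-site fit of the fluorescence ratio gave IC50.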

## CCCC[C@H](NC(=O)[C@H](Cc1ccccc1)NC(=O)[C@@H](NC(=O)[C@H](C)NC(=O)[C@H](CCC(=O)O)NC(=O)[C@H](CC(=O)O)NC(=O)[C@@H](NC(=O)[C@H](Cc1ccccc1)NC(C)=O)[C@@H](C)CC)C(C)C)C(=O)N[C@@]1(C)CCCC=CCCC[C@@](C)(C(=O)N[C@@H](CCCC)C(=O)N[C@@H](C)C(=O)N[C@@H](CC(C)C)C(=O)N[C@@H](CC(C)C)C(N)=O)NC(=O)[C@H]([C@@H](C)CC)NC(=O)[C@H](C(C)C)NC(=O)[C@H](CC(C)C)NC1=O [SP-249] (Ac-FIDEAVF[Nle][S5]LVI[S5][Nle]ALL-NH2; staple 9-13)
[1]
  18 h Avg % max inhibition at top conc (HIF Rptr-24 hrs normoxia) (μM): + (<10: +)
  EC50: > 30 µM
[2]
  Viability 1% FBS AVG (MTT V3-24 hr Normoxia) (μM): ++++ (≥30: ++++)
[3]
  IC50: > 700 nM

## CCCC[C@H](NC(=O)[C@H](CCC(=O)O)NC(=O)[C@]1(C)CCCC=CCCCCCC[C@@](C)(NC(=O)[C@H](CCC(=O)O)NC(=O)[C@H](C)NC(=O)[C@H](C)NC(=O)[C@H](C)NC(=O)[C@H](C)NC(=O)[C@H](CCC(N)=O)NC(=O)[C@]2(C)CCCC=CCCC[C@](C)(NC(=O)[C@H](CC(C)C)NC(=O)[C@H](CCC(=O)O)NC(=O)[C@H](CCC(=O)O)NC(=O)CNC(=O)[C@H](CCC(N)=O)NC(=O)[C@H](CC(C)C)NC(=O)[C@H](CC(C)C)NC(C)=O)C(=O)N[C@@H](CCCNC(=N)N)C(=O)N[C@@H](C)C(=O)N[C@@H](CC(C)C)C(=O)N2)C(=O)N[C@@H](C(C)C)C(=O)N[C@@H](CC(C)C)C(=O)N[C@@H](CCCC)C(=O)N[C@@H](CO)C(=O)N[C@@H](CC(C)C)C(=O)N[C@@H](C(C)C)C(=O)N1)C(N)=O [SP-359] (Ac-LLQGEEL[S5]RAL[S5]QAAAAE[R8]VL[Nle]SLV[S5]E[Nle]-NH2; staple 8-12, 19-26)
[1]
  18 h Avg % max inhibition at top conc (HIF Rptr-24 hrs normoxia) (μM): +++ (≤25 but <50: +++)
  EC50: > 30 µM
[2]
  Viability 1% FBS AVG (MTT V3-24 hr Normoxia) (μM): ++++ (≥30: ++++)
[3]
  IC50: 200 to 400 nM

## CCCC[C@H](NC(=O)[C@H](CC(C)C)NC(=O)[C@@H](NC(=O)[C@H](CCC(=O)O)NC(=O)[C@H](CCC(=O)O)NC(=O)[C@H](CC(=O)O)NC(=O)[C@@H](NC(=O)[C@H](CC(N)=O)NC(=O)[C@@H](NC(=O)[C@H](CCC(N)=O)NC(=O)[C@]1(C)CCCC=CCCC[C@](C)(NC(=O)[C@H](CC(C)C)NC(=O)[C@H](CCC(=O)O)NC(=O)[C@H](CCC(=O)O)NC(=O)CNC(=O)[C@H](CCC(N)=O)NC(=O)[C@H](CC(C)C)NC(=O)[C@H](CC(C)C)NC(C)=O)C(=O)N[C@@H](CCCNC(=N)N)C(=O)N[C@@H](C)C(=O)N[C@@H](CC(C)C)C(=O)N1)C(C)C)[C@@H](C)CC)C(C)C)C(=O)N[C@@]1(C)CCCC=CCCC[C@@](C)(C(=O)N[C@@H](CCCC)C(=O)NCC(N)=O)NC(=O)[C@H]([C@@H](C)CC)NC(=O)[C@H](C(C)C)NC(=O)[C@H](CC(C)C)NC1=O [SP-308] (Ac-LLQGEEL[S5]RAL[S5]QVNIDEEVL[Nle][S5]LVI[S5][Nle]G-NH2; staple 8-12, 23-27)
[1]
  18 h Avg % max inhibition at top conc (HIF Rptr-24 hrs normoxia) (μM): ++++ (≥50: ++++)
  EC50: 15 to 30 µM
[2]
  Viability 1% FBS AVG (MTT V3-24 hr Normoxia) (μM): ++++ (≥30: ++++)
[3]
  IC50: 200 to 400 nM

## CCCC[C@H](NC(=O)[C@]1(C)CCCC=CCCC[C@](C)(NC(=O)[C@H](CCCC)NC(=O)[C@H](CC(C)C)NC(=O)[C@@H](NC(=O)[C@H](CCC(=O)O)NC(=O)[C@H](CCC(=O)O)NC(=O)[C@H](C)NC(=O)[C@@H](NC(=O)[C@H](CC(N)=O)NC(=O)[C@@H](NC(=O)[C@]2(C)CCCC=CCCCCCC[C@@](C)(NC(=O)[C@H](CCC(=O)O)NC(=O)CNC(=O)[C@H](CCC(N)=O)NC(=O)[C@H](CC(C)C)NC(=O)[C@H](CC(C)C)NC(C)=O)C(=O)N[C@@H](CC(C)C)C(=O)N[C@@H](CC(C)C)C(=O)N[C@@H](CCCNC(=N)N)C(=O)N[C@@H](C)C(=O)N[C@@H](CC(C)C)C(=O)N[C@@H](CC(=O)O)C(=O)N2)C(C)C)[C@@H](C)CC)C(C)C)C(=O)N[C@@H](CC(C)C)C(=O)N[C@@H](C(C)C)C(=O)N[C@@H]([C@@H](C)CC)C(=O)N1)C(N)=O [SP-349] (Ac-LLQGE[R8]LLRALD[S5]VNIAEEVL[Nle][S5]LVI[S5][Nle]-NH2; staple 6-13, 23-27)
[1]
  18 h Avg % max inhibition at top conc (HIF Rptr-24 hrs normoxia) (μM): +++ (≤25 but <50: +++)
  EC50: > 30 µM
[2]
  Viability 1% FBS AVG (MTT V3-24 hr Normoxia) (μM): ++++ (≥30: ++++)
[3]
  IC50: ≤ 200 nM

## CCCC[C@H](NC(=O)[C@]1(C)CCCC=CCCC[C@](C)(NC(=O)[C@H](CCSC)NC(=O)[C@H](CC(C)C)NC(=O)[C@@H](NC(=O)[C@H](CCC(=O)O)NC(=O)[C@H](CCC(=O)O)NC(=O)[C@H](CC(=O)O)NC(=O)[C@@H](NC(=O)[C@H](Cc2ccccc2)NC(C)=O)[C@@H](C)CC)C(C)C)C(=O)N[C@@H](CC(C)C)C(=O)N[C@@H](C(C)C)C(=O)N[C@@H]([C@@H](C)CC)C(=O)N1)C(=O)N[C@@H](C)C(=O)N[C@@H](CC(C)C)C(N)=O [SP-225] (Ac-FIDEEVLM[S5]LVI[S5][Nle]AL-NH2; staple 9-13)
[1]
  18 h Avg % max inhibition at top conc (HIF Rptr-24 hrs normoxia) (μM): +++ (≤25 but <50: +++)
  EC50: > 30 µM
[2]
  Viability 1% FBS AVG (MTT V3-24 hr Normoxia) (μM): ++++ (≥30: ++++)
[3]
  IC50: > 700 nM

## CCCC[C@@H]1NC(=O)[C@H](CC(C)C)NC(=O)[C@](C)(NC(=O)[C@H](CCC(=O)O)NC(=O)[C@H](CCC(=O)O)NC(=O)[C@H](CC(=O)O)NC(=O)[C@@H](NC(=O)[C@H](CC(N)=O)NC(=O)[C@@H](NC(=O)[C@]2(C)CCCC=CCCCCCC[C@@](C)(NC(=O)[C@H](CCC(=O)O)NC(=O)CNC(=O)[C@H](CCC(N)=O)NC(=O)[C@H](CC(C)C)NC(=O)[C@H](CC(C)C)NC(C)=O)C(=O)N[C@@H](CC(C)C)C(=O)N[C@@H](CC(C)C)C(=O)N[C@@H](CCCNC(=N)N)C(=O)N[C@@H](C)C(=O)N[C@@H](CC(C)C)C(=O)N[C@@H](CC(=O)O)C(=O)N2)C(C)C)[C@@H](C)CC)CCCCCCC=CCCC[C@@](C)(C(=O)N[C@@H](CCCC)C(=O)NCC(N)=O)NC(=O)[C@H]([C@@H](C)CC)NC(=O)[C@H](C(C)C)NC(=O)[C@H](CC(C)C)NC(=O)[C@H](CO)NC1=O [SP-332] (Ac-LLQGE[R8]LLRALD[S5]VNIDEE[R8]L[Nle]SLVI[S5][Nle]G-NH2; staple 6-13, 20-27)
[1]
  18 h Avg % max inhibition at top conc (HIF Rptr-24 hrs normoxia) (μM): + (<10: +)
  EC50: > 30 µM
[2]
  Viability 1% FBS AVG (MTT V3-24 hr Normoxia) (μM): ++++ (≥30: ++++)
[3]
  IC50: ≤ 200 nM

## CCCC[C@H](NC(=O)[C@H](CCC(=O)O)NC(=O)[C@@H](NC(=O)[C@@H](NC(=O)[C@H](CC(C)C)NC(=O)[C@]1(C)CCCC=CCCC[C@](C)(NC(=O)[C@H](CCC(=O)O)NC(=O)[C@H](CC(=O)O)NC(=O)[C@@H](NC(=O)[C@H](Cc2ccccc2)NC(C)=O)[C@@H](C)CC)C(=O)N[C@@H](C(C)C)C(=O)N[C@@H](CC(C)C)C(=O)N[C@@H](C)C(=O)N1)C(C)C)[C@@H](C)CC)C(=O)N[C@@H](C)C(=O)N[C@@H](CC(C)C)C(N)=O [SP-152] (Ac-FIDE[S5]VLA[S5]LVIE[Nle]AL-NH2; staple 5-9)
[1]
  18 h Avg % max inhibition at top conc (HIF Rptr-24 hrs normoxia) (μM): +++ (≤25 but <50: +++)
  EC50: > 30 µM
[2]
  Viability 1% FBS AVG (MTT V3-24 hr Normoxia) (μM): ++++ (≥30: ++++)
[3]
  IC50: 400 to 700 nM
